{"source": "patent US8569279B2", "about": "“Method for modulating claudin mediated functions” (Sucampo AG, priority 2008, dated 2013)", "key": {"[1]": {"tested_on": "epithelial tight junction, mouse intestine (jejunum mucosa)", "experiment": "Tissue conductance and dilution potentials in normal mouse intestines after Compound A in drinking water", "assay_type": "in vivo", "details": "male C57BL/6 mice, 10 μM in drinking water for 7 to 14 days, jejunum mucosa in chamber, FIG. 1", "description": "(Method) Male C57BL/6 mice (7-8 weeks old) were administered with 10 μM Compound A in the drinking water and fed standard diet for 7 to 14 days. During the period, the mice could drink the water freely. At the conclusion of this period, the mice were sacrificed and the intestines were removed. Approximately 5 cm sections were cut from tip of the jejunum. The intestine section was opened from ventral side, and then it was washed several Limes with Ringer solution. The mucosa of the intestine was carefully stripped from the serosa using forceps. The mucosa was mounted in a standard chamber (5 mm in diameter of exposed surface area) and bathed with buffer solution. Transepithelial short-circuit current (Isc) was measured and total tissue conductance was determined by measuring the current deflections resulting from a 1 mV/min transepithelial pulse and applying Ohm's law. When stable measurement of Isc was achieved, the buffer solution was replaced with potassium-free solution. The solution in the luminal bath were then replaced with the solution containing […], 150 mM LiCl, 150 mM KCl, 75 mM MgCl2 and 75 mM CaCl2, in turn, and dilution potentials in each solution were measured."}, "claudin-15 protein": {"tested_on": "claudin-15 protein", "experiment": "Expression of claudin proteins in mouse intestine (immunofluorescence staining)", "assay_type": "in vivo", "details": "10 μM in drinking water for 7 to 14 days, immunofluorescence staining of frozen slices, FIG. 2", "description": "(Method) Treatment of mice and removal of intestine were conducted by similar way mentioned above. The removed intestine was frozen in liquid nitrogen and frozen slices were prepared. Expressions and intracellular distribution of claudin-15 protein were determined with immunofluorescence staining. […] (Conclusion) Continuous administration of Compound A caused expression changes of tight junction proteins, such as the decrease of claudin-15 which induces changes of electrophysiological property of the tight junction. Decrease of the expression of claudin-15 in the tight junction resulted to enhance the tightness of the tight junction and strengthen the epithelial sheet against toxic substances."}, "[2]": {"tested_on": "skin ulcer and/or bedsore animal model, db/db mice", "experiment": "Skin ulcer healing in genetically-diabetic mice (db/db mice)", "assay_type": "in vivo, mouse", "details": "topical twice a day for 12 days; for Ulcer area, %: Day 13 relative to Day 1, mean ± standard error, control 70.0 ± 5.7", "excerpt": "Female BKS.Cg−+Lepr^db/+Lepr^db/Jcl mice (db/db mice, SPF; CLEA Japan, Inc.), genetically-diabetic mice, were used for the present study. After the removal of the dorsal hair, the skin covering an area of 1.5×1.5 cm centered on the dorsal median was excised using ophthalmic scissors under anesthesia to make a skin ulcer and/or bedsore animal model. Then the excised skin area (ulcer area) was covered with porous film dressing measuring 4×4 cm. The dosing preparation was applied to the ulcer area at a dosage volume of 0.1 mL per site. The application was performed twice a day for 12 days from the day of preparation of the ulcers. Compound B: (−)-7-{(2R,4aR,5R,7aR)-2-[(3S)-1,1-difluoro-3-methylpentyl]-2-hydroxy-6-oxooctahydrocyclopenta[b]pyran-5-yl}heptanoic acid at 10 or 30 micro-g/site was applied to the ulcer per time. The same volume of the vehicle (physiological saline solution containing 1% polysorbate 80: 1% PS80) was applied to the animals in the control group. The day of the start of the application was defined as Day 1. On the Day 1 and Day 13, the frontal edge of the epidermis or the regeneration epidermis of each ulcer was traced on a plastic sheet. The traced ulcer area was measured with an area-line meter. The ulcer area (%) on Day 13 was calculated on the basis of the ulcer area on Day 1. Group mean values with standard errors were calculated for ulcer area (%)."}}, "data": [{"smiles": "CCCCC(F)(F)[C@@]1(O)CC[C@H]2[C@@H](CC(=O)[C@@H]2CCCCCCC(=O)O)O1", "note": "[Compound A, (−)-7-[(2R,4aR,5R,7aR)-2-(1,1-Difluoropentyl)-2-hydroxy-6-oxooctahydrocyclopenta[b]pyran-5-yl]heptanoic acid]", "values": [{"measurement": "dilution potential of univalent cations compared to no-treatment group", "setting": "[1]", "value": "decrease"}, {"measurement": "total tissue conductance compared to no-treatment group", "setting": "[1]", "value": "decrease"}, {"measurement": "expression of claudin-15 protein", "setting": "claudin-15 protein", "value": "decreased"}]}, {"smiles": "CC[C@H](C)CC(F)(F)[C@@]1(O)CC[C@H]2[C@@H](CC(=O)[C@@H]2CCCCCCC(=O)O)O1", "note": "[Compound B, (−)-7-{(2R,4aR,5R,7aR)-2-[(3S)-1,1-difluoro-3-methylpentyl]-2-hydroxy-6-oxooctahydrocyclopenta[b]pyran-5-yl}heptanoic acid]", "values": [{"measurement": "ulcer healing as compared to the control group", "setting": "[2]; 10 and 30 micro-g/site", "value": "significantly accelerated the ulcer healing"}, {"measurement": "Ulcer area, %", "setting": "[2]; 10 micro-g/site", "value": "43.1 ± 4.2", "unit": "%"}, {"measurement": "Ulcer area, %", "setting": "[2]; 30 micro-g/site", "value": "41.1 ± 3.1", "unit": "%"}]}]}
